{"source": "patent US12643924B2", "about": "“Cardiac-specific targeting-peptide (CTP), compositions, and uses thereof” (University of Pittsburgh—Of the Commonwealth System of …, priority 2018, dated 2026)", "key": {"H9C2 cells [1]": {"tested_on": "H9C2 cells", "test": "Fluorescence activated cell sorting of H9C2 cells after 30 min incubation with 10 uM peptide (median Cy5.5)", "format": "cell-based, rat", "conditions": "for Corrected Median Cy5.5 / Raw Median Cy5.5: H9C2 cells, 30 min incubation, 10 uM peptide, single replicates; for Corrected Median Cy5.5: corrected for peptide fluorescence; for Average Correction: average of corrected median Cy5.5, H9C2 cells, FIG. 1C", "procedure": "(§1) Variants of SEQ ID NO: 1 in which every amino acid was systematically mutated to alanine were synthesized in the University of Pittsburgh Peptide Synthesis Facility. Each variant was conjugated to the Cyanine5.5 fluorescent dye (Cy5.5). The rat cardiomyocyte cell line H9C2 (ATCC, catalogue #: CRL-1446) was incubated for 30 minutes at 37° C. with Dimethyl sulfoxide (DMSO) as a control, or the alanine peptide variants. Cells were then washed 3 times with PBS, trypsinized and resuspended, stained for live/dead cells, and then FACS sorted for Cy5.5 positive cells."}, "H9C2 cells [2]": {"tested_on": "H9C2 cells", "test": "Alanine scan: percentage of Cy5.5 positive H9C2 cells by FACS", "format": "cell-based, rat", "conditions": "percentage of Cy5.5 positive H9C2 cells normalized to non-mutated peptide (SEQ ID NO: 1); Cy5.5-conjugated peptides, 30 minutes at 37° C.", "procedure": "as §1\nThe percentage of Cy5.5 positive H9C2 cells, normalized to the non-mutated peptide (SEQ ID NO: 1), for each peptide variant is summarized in Table 2 below."}, "myocardial tissue": {"tested_on": "myocardial tissue", "test": "Fluorescence intensity in myocardial tissue 15 minutes after injection of fluorescently-labeled CTP variants", "format": "in vivo", "conditions": "mice; for fluorescence intensity in myocardial tissue compared to CTP: FIG. 6B", "procedure": "Additionally, fluorescently-labeled CTP variants (CTP, CTP-B, H4A, P2A) or fluorescently-labeled random peptide sequence (RAN) were injected into mice and fluorescence intensity was measured in fixed myocardial tissue. Mice were injected with peptides, and, 15 minutes after injection, heart tissue was dissected, cryosectioned, stained, and analyzed for fluorescence intensity."}, "[3]": {"tested_on": "H9C2 cells, MEF cells, 3T3 cells", "test": "Transduction of cell lines by Cy5.5 labeled N- and C-terminal CTP variants (FACS)", "format": "cell-based", "conditions": "across all three cell lines; FIGS. 2A-2D", "procedure": "(§2) FIGS. 2A-2E are a series of bar graphs that show the transduction efficiencies and viability of various cell types incubated with Cy5.5 labeled cardiac-specific targeting peptide variants. […] CTP (Full Length): NH2-APWHLSSQYSRT-COOH (SEQ ID NO: 1); CTP-A: NH2-APWHLS-COOH (SEQ ID NO: 24); CTP-B: NH2-SQYSRT-COOH (CTP6aa; SEQ ID NO: 5); cyclic: cyclized version of the indicated peptide; CTP-Random: random, linear, 12-amino acid peptide (RAN: NH2-STLMKFCYVEQN-COOH ((SEQ ID NO: 26)); DMSO: Dimethyl sulfoxide.\n(§3) Solid-phase peptide synthesis were used to synthesize the full-length form (NH2-APWHLSSQYSRT-COOH (SEQ ID NO: 1)), as well as an N-terminus 6 amino acid called CTP-A (NH2-APWHLS-COOH (SEQ ID NO: 24)), or as CTP6aa (NH2-SQYSRT-COOH (SEQ ID NO: 5)) peptides. Full length and CTP6aa were also synthesized in a cyclic forms. A random, linear, 12-amino acid long peptide (RAN: NH2-STLMKFCYVEQN-COOH (SEQ ID NO: 26)) was also synthesized to serve as control. All peptides were fluorescently labeled with Cyanine5.5 (Cy5.5). Isolated, beating neonatal mouse cardiomyocytes (CMC) were incubated with 10 μM of the peptides at 37° C. for 30 minutes, washed extensively with PBS and confocal microscopy performed. […]"}, "H9C2 cells and MEFs": {"tested_on": "H9C2 cells and MEFs", "format": "cell-based", "conditions": "compared to full-length peptide and DMSO control; FIG. 2E", "procedure": "as §2, §3"}}, "note": "Where no end group is shown, it is not given here.", "data": [{"substance": "AAWHLSSQYSRT (also: Cy5.5 conjugate, site not given here) [P2A, alanine variant of CTP, Cy5.5 conjugated]", "values": [{"measurement": "Corrected Median Cy5.5", "setting": "H9C2 cells [1]; listed as P2A_001", "result": 9901.8}, {"measurement": "Corrected Median Cy5.5", "setting": "H9C2 cells [1]; listed as P2A_002", "result": 9298.9}, {"measurement": "Corrected Median Cy5.5", "setting": "H9C2 cells [1]; listed as P2A_003", "result": 9488.4}, {"measurement": "Raw Median Cy5.5", "setting": "H9C2 cells [1]; listed as P2A_001", "result": 9449}, {"measurement": "Raw Median Cy5.5", "setting": "H9C2 cells [1]; listed as P2A_002", "result": 8834}, {"measurement": "Raw Median Cy5.5", "setting": "H9C2 cells [1]; listed as P2A_003", "result": 9014}, {"measurement": "Average Correction", "setting": "H9C2 cells [1]", "result": 9535.0}, {"measurement": "% transduction of H9C2 Cells", "setting": "H9C2 cells [2]", "result": 59.15, "unit": "%"}, {"measurement": "fluorescence intensity in myocardial tissue compared to CTP", "setting": "myocardial tissue", "result": "significantly greater"}]}, {"substance": "SQYSRT (Description of Artificial Sequence: Cardiac Targeting Peptide (CTP-B)) [linear six C-terminal amino acid cardiac-specific targeting peptide]", "values": [{"measurement": "Corrected Median Cy5.5", "setting": "H9C2 cells [1]; listed as CTP-B_001", "result": 5663.7}, {"measurement": "Corrected Median Cy5.5", "setting": "H9C2 cells [1]; listed as CTP-B_002", "result": 6469.2}, {"measurement": "Corrected Median Cy5.5", "setting": "H9C2 cells [1]; listed as CTP-B_003", "result": 6240.8}, {"measurement": "Raw Median Cy5.5", "setting": "H9C2 cells [1]; listed as CTP-B_001", "result": 4711}, {"measurement": "Raw Median Cy5.5", "setting": "H9C2 cells [1]; listed as CTP-B_002", "result": 5381}, {"measurement": "Raw Median Cy5.5", "setting": "H9C2 cells [1]; listed as CTP-B_003", "result": 5191}, {"measurement": "Average Correction", "setting": "H9C2 cells [1]", "result": 6124.6}, {"measurement": "transduction compared to the full-length peptide", "setting": "[3]", "result": "at least as well as the full-length peptide"}, {"measurement": "uptake compared to random peptide sequence and CTP", "setting": "myocardial tissue", "result": "superior uptake"}, {"measurement": "fluorescence intensity in myocardial tissue compared to CTP", "setting": "myocardial tissue", "result": "significantly greater"}, {"measurement": "cell viability", "setting": "H9C2 cells and MEFs", "result": "did not alter cell viability"}]}, {"substance": "APWHLSSQASRT (also: Cy5.5 conjugate, site not given here) [Y9A, alanine variant of CTP, Cy5.5 conjugated]", "values": [{"measurement": "Corrected Median Cy5.5", "setting": "H9C2 cells [1]; listed as Y9A_001", "result": 5365.7}, {"measurement": "Corrected Median Cy5.5", "setting": "H9C2 cells [1]; listed as Y9A_002", "result": 5445.9}, {"measurement": "Corrected Median Cy5.5", "setting": "H9C2 cells [1]; listed as Y9A_003", "result": 5586.0}, {"measurement": "Raw Median Cy5.5", "setting": "H9C2 cells [1]; listed as Y9A_001", "result": 5018}, {"measurement": "Raw Median Cy5.5", "setting": "H9C2 cells [1]; listed as Y9A_002", "result": 5093}, {"measurement": "Raw Median Cy5.5", "setting": "H9C2 cells [1]; listed as Y9A_003", "result": 5224}, {"measurement": "Average Correction", "setting": "H9C2 cells [1]", "result": 5465.9}, {"measurement": "% transduction of H9C2 Cells", "setting": "H9C2 cells [2]", "result": 107, "unit": "%"}]}]}
